# Experimental data reported in patent publication US20100272825A1, “METHOD OF DISINFECTING CARCASSES” (JOHNSONDIVERSEY, INC., priority 2006, published 2010).
# Values joined by “and” are separate entries in the source; they are usually repeats but may differ in a detail not shown here. Identical values can stand only once.
# Experiments:
# [1] = system: Salmonella typhi, ATCC # 6359; experiment: AOAC Chlorine (Available) in Disinfectants, subculture series; format: cell-based; parameters: key to Subculture Series 1, growth / Subculture Series 10, growth / Subculture Series 2, growth / Subculture Series 3, growth / Subculture Series 4, growth / Subculture Series 5, growth / Subculture Series 6, growth / Subculture Series 7, growth / Subculture Series 8, growth / Subculture Series 9, growth: + = growth; − = no growth
# Experimental: (§1) The invention will be further appreciated in light of the following detailed examples. In these examples, a chlorine dioxide solution was obtained by forming chlorous acid from an ion exchange resin, running this through a platinum catalyst to form chlorine dioxide. The chlorine dioxide obtained from the ion exchange resin catalyst combination was generally at about 650-750 ppm at a pH of about 2, which was then diluted with an acid solution of sodium bisulfate to reach the desired use concentration as set forth in the examples.
# [2] = system: Salmonella typhi, ATCC # 6539; experiment: Sanitizing effectiveness: modified Germicidal and Detergent Sanitizing Action of Disinfectants, A.O.A.C.; format: cell-based; conditions: 1 ppm Chlorine Dioxide; for Survivors: initial 116,000,000 org/ml
# Experimental: as §1
# [3] = pH 2.0, contact 10 seconds 25° C.
# [4] = pH 2.5, contact 10 seconds 25° C.
# [5] = pH 3.0, contact 10 seconds 25° C.
# [6] = pH 3.5, contact 10 seconds 25° C.
# [7] = pH 4.0, contact 10 seconds 25° C.
smiles,measurement,setting,value
"[O][Cl+][O-] [Chlorine Dioxide, chlorine dioxide]",germicidal efficacy expressed as equivalent concentration of sodium hypochlorite,[1]; 15 ppm of ClO2 at pH 2.5,200 ppm
same,germicidal efficacy expressed as equivalent concentration of sodium hypochlorite,[1]; 15 ppm of ClO2 at pH 3.75,> 100 ppm and < 200 ppm
same,"Subculture Series 1, growth","[1]; ClO2 12 ppm, pH = 2.50",−
same,"Subculture Series 2, growth","[1]; ClO2 12 ppm, pH = 2.50",−
same,"Subculture Series 3, growth","[1]; ClO2 12 ppm, pH = 2.50",−
same,"Subculture Series 4, growth","[1]; ClO2 12 ppm, pH = 2.50",−
same,"Subculture Series 5, growth","[1]; ClO2 12 ppm, pH = 2.50",+
same,"Subculture Series 6, growth","[1]; ClO2 12 ppm, pH = 2.50",+
same,"Subculture Series 7, growth","[1]; ClO2 12 ppm, pH = 2.50",+
same,"Subculture Series 8, growth","[1]; ClO2 12 ppm, pH = 2.50",+
same,"Subculture Series 9, growth","[1]; ClO2 12 ppm, pH = 2.50",+
same,"Subculture Series 10, growth","[1]; ClO2 12 ppm, pH = 2.50",+
same,"Subculture Series 1, growth","[1]; ClO2 12 ppm, pH = 3.82",−
same,"Subculture Series 2, growth","[1]; ClO2 12 ppm, pH = 3.82",−
same,"Subculture Series 3, growth","[1]; ClO2 12 ppm, pH = 3.82",+
same,"Subculture Series 4, growth","[1]; ClO2 12 ppm, pH = 3.82",+
same,"Subculture Series 5, growth","[1]; ClO2 12 ppm, pH = 3.82",+
same,"Subculture Series 6, growth","[1]; ClO2 12 ppm, pH = 3.82",+
same,"Subculture Series 7, growth","[1]; ClO2 12 ppm, pH = 3.82",+
same,"Subculture Series 8, growth","[1]; ClO2 12 ppm, pH = 3.82",+
same,"Subculture Series 9, growth","[1]; ClO2 12 ppm, pH = 3.82",+
same,"Subculture Series 10, growth","[1]; ClO2 12 ppm, pH = 3.82",+
same,"Subculture Series 1, growth","[1]; ClO2 15 ppm, pH = 2.50",−
same,"Subculture Series 2, growth","[1]; ClO2 15 ppm, pH = 2.50",−
same,"Subculture Series 3, growth","[1]; ClO2 15 ppm, pH = 2.50",−
same,"Subculture Series 4, growth","[1]; ClO2 15 ppm, pH = 2.50",−
same,"Subculture Series 5, growth","[1]; ClO2 15 ppm, pH = 2.50",−
same,"Subculture Series 6, growth","[1]; ClO2 15 ppm, pH = 2.50",−
same,"Subculture Series 7, growth","[1]; ClO2 15 ppm, pH = 2.50",−
same,"Subculture Series 8, growth","[1]; ClO2 15 ppm, pH = 2.50",−
same,"Subculture Series 9, growth","[1]; ClO2 15 ppm, pH = 2.50",+
same,"Subculture Series 10, growth","[1]; ClO2 15 ppm, pH = 2.50",+
same,"Subculture Series 1, growth","[1]; ClO2 15 ppm, pH = 3.75",−
same,"Subculture Series 2, growth","[1]; ClO2 15 ppm, pH = 3.75",−
same,"Subculture Series 3, growth","[1]; ClO2 15 ppm, pH = 3.75",−
same,"Subculture Series 4, growth","[1]; ClO2 15 ppm, pH = 3.75",−
same,"Subculture Series 5, growth","[1]; ClO2 15 ppm, pH = 3.75",−
same,"Subculture Series 6, growth","[1]; ClO2 15 ppm, pH = 3.75",+
same,"Subculture Series 7, growth","[1]; ClO2 15 ppm, pH = 3.75",+
same,"Subculture Series 8, growth","[1]; ClO2 15 ppm, pH = 3.75",+
same,"Subculture Series 9, growth","[1]; ClO2 15 ppm, pH = 3.75",+
same,"Subculture Series 10, growth","[1]; ClO2 15 ppm, pH = 3.75",+
same,% Reduction,[2]; [3],99.103%
same,Survivors,[2]; [3],"1,040,000"
same,% Reduction,[2]; [4],99.207%
same,Survivors,[2]; [4],"920,000"
same,% Reduction,[2]; [5],<97.845%
same,Survivors,[2]; [5],">2,500,000"
same,% Reduction,[2]; [6],<97.845%
same,Survivors,[2]; [6],">2,500,000"
same,% Reduction,[2]; [7],<97.845%
same,Survivors,[2]; [7],">2,500,000"
"[Na+].[O-]Cl [NaOCl, sodium hypochlorite, reference compound]","Subculture Series 1, growth",[1]; NaOCl 50 ppm,−
same,"Subculture Series 2, growth",[1]; NaOCl 50 ppm,+
same,"Subculture Series 3, growth",[1]; NaOCl 50 ppm,+
same,"Subculture Series 4, growth",[1]; NaOCl 50 ppm,+
same,"Subculture Series 5, growth",[1]; NaOCl 50 ppm,+
same,"Subculture Series 1, growth",[1]; NaOCl 100 ppm,−
same,"Subculture Series 2, growth",[1]; NaOCl 100 ppm,−
same,"Subculture Series 3, growth",[1]; NaOCl 100 ppm,−
same,"Subculture Series 4, growth",[1]; NaOCl 100 ppm,−
same,"Subculture Series 5, growth",[1]; NaOCl 100 ppm,+
same,"Subculture Series 6, growth",[1]; NaOCl 100 ppm,+
same,"Subculture Series 7, growth",[1]; NaOCl 100 ppm,+
same,"Subculture Series 8, growth",[1]; NaOCl 100 ppm,+
same,"Subculture Series 9, growth",[1]; NaOCl 100 ppm,+
same,"Subculture Series 10, growth",[1]; NaOCl 100 ppm,+
same,"Subculture Series 1, growth",[1]; NaOCl 200 ppm,−
same,"Subculture Series 2, growth",[1]; NaOCl 200 ppm,−
same,"Subculture Series 3, growth",[1]; NaOCl 200 ppm,−
same,"Subculture Series 4, growth",[1]; NaOCl 200 ppm,−
same,"Subculture Series 5, growth",[1]; NaOCl 200 ppm,−
same,"Subculture Series 6, growth",[1]; NaOCl 200 ppm,−
same,"Subculture Series 7, growth",[1]; NaOCl 200 ppm,−
same,"Subculture Series 8, growth",[1]; NaOCl 200 ppm,+
same,"Subculture Series 9, growth",[1]; NaOCl 200 ppm,+
same,"Subculture Series 10, growth",[1]; NaOCl 200 ppm,+
